According to patent US6518252B2, “Method of treating aquatic animals with an antimicrobial agent and chelating agent” (priority 2000, dated 2003):
“And” between values parts separate entries of the source, which are not always exact repeats. Identical values can stand only once.

What was measured:
Ps. aeruginosa [1] = test: Two-dimensional microtiter checkerboard, MIC and FIC of EDTA in 50 mM Tris and antibiotics; type: cell-based, Pseudomonas aeruginosa
Procedure: (§1) Sabath, L. D, Antimicrob. Agents and Chem. 210-217. (1967) and Sparks et al., Vet. Res. Comm. 18, 241-249 (1994), incorporated herein by reference in their entireties. […] Then 0.05 ml of an 18-hour old culture of a test organism, containing 10^6 colony-forming units (CFU) ml, were added to each well. Controls for the culture and media were included in each plate. Plates were covered and incubated at 37° C. for 18-24 hours. […] To generate isobolograms, FICs of the two test solutions were plotted individually on the x-axis and y-axis to determine the effect of combining the two test solutions on bacterial growth. A line that curves away from the zero point and the coordinates indicated antagonism. […] Sabath, L. D, Antimicrob. Agents and Chem. 210-217. (1967), and incorporated herein by reference in their entireties. A numerical score or Fractional Inhibitory Concentration (FIC) index was determined.

Staph. aureus [2] = test: as above; type: cell-based, Staphylococcus aureus
Procedure: as §1

Ent. faecalis = test: as above; type: cell-based, Enterococcus faecalis
Procedure: as §1

Aeromonas caviae = test: MIC and FIC of EDTA in 50 mM Tris and neomycin, Aeromonas isolated from ulcerated fish; type: cell-based; conditions: A. caviae
Procedure: (§2) Sabath, L. D, Antimicrob. Agents and Chem. 210-217. (1967) and Sparks et al., Vet. Res. Comm. 18, 241-249 (1994), incorporated herein by reference in their entireties.
(§3) Then 0.05 ml of an 18-hour old culture of a test organism, containing 10^6 colony-forming units (CFU) ml, were added to each well. Controls for the culture and media were included in each plate. Plates were covered and incubated at 37° C. for 18-24 hours.
(§4) To generate isobolograms, FICs of the two test solutions were plotted individually on the x-axis and y-axis to determine the effect of combining the two test solutions on bacterial growth. A line that curves away from the zero point and the coordinates indicated antagonism. […] Sabath, L. D, Antimicrob. Agents and Chem. 210-217. (1967), and incorporated herein by reference in their entireties.
(§5) A numerical score or Fractional Inhibitory Concentration (FIC) index was determined. The FIC index is equal to the sum of the values of FIC for the individual drugs: [formula]
(§6) An FIC index greater than 1.0 indicated an antagonistic interaction, an FIC index of 1.0 indicated addition, and an FIC index of less than or equal to 0.5 indicated synergism between the two test agents.

Aeromonas sobria = test: as above; type: cell-based; conditions: A. sobria
Procedure: as §2, §3, §4, §5, §6

Bacillus sp. = test: MIC of commercial chemical disinfectants or EDTA-Tris; type: cell-based; conditions: 1 x stock: EDTA-Tris 5 mM EDTA + 50 mM Tris-HCl, Glutracide 1:200, Magnaphen-100 1:400, BioSentry 904 1:256, Synergize 1:256, hydrogen peroxide 3%
Staph. aureus [3] = test: MIC and FIC of chemical disinfectants and EDTA-Tris; type: cell-based, Staphylococcus aureus
Procedure: as §5, §6

Ps. aeruginosa [4] = test: as above; type: cell-based, Pseudomonas aeruginosa
Procedure: as §5, §6

P. mirabilis = test: as above; type: cell-based, Proteus mirabilis
Procedure: as §5, §6

E. coli = test: MIC of commercial chemical disinfectants or EDTA-Tris; type: cell-based; conditions: 1 x stock solutions as in footnote of Table 5
S. enteritidis = test: MIC and FIC of chemical disinfectants and EDTA-Tris; type: cell-based
Procedure: as §5, §6

[5] = system: S. typhimurium 6578 (parent strain); test: as above; type: cell-based
Procedure: as §5, §6

[6] = system: S. typhimurium Avian (avian strain); test: as above; type: cell-based
Procedure: as §5, §6

[7] = system: S. typhimurium DT104 (multiple antibiotic resistant strain); test: as above; type: cell-based
Procedure: as §5, §6

[8] = system: S. typhimurium TRC1 (mar mutant); type: cell-based
Procedure: as §5, §6

B subtilis = test: FIC of chemical disinfectants and EDTA-Tris; type: cell-based; conditions: chemical disinfectant and EDTA-Tris
Procedure: as §5, §6

E. coli Av = test: FIC of chemical disinfectants and EDTA-Tris; type: cell-based; conditions: chemical disinfectant and EDTA-Tris
Procedure: as §5, §6

E. coli V-1 = test: FIC of chemical disinfectants and EDTA-Tris; type: cell-based; conditions: chemical disinfectant and EDTA-Tris
Procedure: as §5, §6

Gram-negative bacteria = test: EDTA-Tris disinfectant combinations, summary; type: cell-based; conditions: most of the Gram-negative bacteria
Procedure: as §5, §6
Fractional inhibitory concentrations for EDTA-Tris disinfectant combinations (synergistic, additive, or antagonistic reactions) were determined for the test organisms. […]

Gram-positive organisms = test: EDTA-Tris disinfectant combinations, summary; type: cell-based
Procedure: as §5, §6

Staphylococcus aureus [9] = test: Antibiotic resistance profile; type: cell-based; conditions: Staphylococcus aureus test strain; also: key: R = resistant; I = intermediate; S = sensitive
Pseudomonas aeruginosa [10] = test: Antibiotic resistance profile; type: cell-based; conditions: Pseudomonas aeruginosa test strain; also: key: R = resistant; I = intermediate; S = sensitive
Enterococcus faecalis [11] = test: Antibiotic resistance profile; type: cell-based; conditions: Enterococcus faecalis test strain; also: key: R = resistant; I = intermediate; S = sensitive
Staphylococcus aureus [12] = test: Minimal Bactericidal Concentration (MBC), EDTA and neomycin in 50 mM Tris; type: cell-based
Pseudomonas aeruginosa [13] = test: as above; type: cell-based
Enterococcus faecalis [14] = test: as above; type: cell-based
Aeromonas hydrophila = test: MIC and FIC of EDTA in 50 mM Tris and neomycin, Aeromonas isolated from ulcerated fish; type: cell-based; conditions: A. hydrophila
Procedure: as §2, §3, §4, §5, §6

[15] = 1 x stock solutions as in footnote of Table 5
[16] = chemical disinfectant and EDTA-Tris
[17] = 1 x stock solutions as in footnote of Table 6

O=C(O)CN(CCN(CC(=O)O)CC(=O)O)CC(=O)O [EDTA, ethylenediaminetetracetic acid]
MIC, individually administered EDTA (Ps. aeruginosa [1]; Ps. aeruginosa, EDTA in 50 mM Tris, alone): 1.25 mM | MIC (Ps. aeruginosa [1]; Pseudomonas aeruginosa, read-out: MIC, individually administered EDTA): 1250 µM | MIC, individually administered EDTA (Staph. aureus [2]; Staph. aureus, EDTA in 50 mM Tris, alone): 1.0 mM | MIC (Staph. aureus [2]; Staphylococcus aureus, read-out: MIC, individually administered EDTA): 1000 µM | MIC, individually administered EDTA (Ent. faecalis; Ent. faecalis, EDTA in 50 mM Tris, alone): 15.63 mM | MIC (Ent. faecalis; Enterococcus faecalis, read-out: MIC, individually administered EDTA): 15.6 mM | MIC, EDTA in 50 mM Tris alone (Aeromonas caviae): <0.49 | MIC, EDTA in 50 mM Tris alone (Aeromonas sobria): 15.6

OO [Hydrogen peroxide]
MIC (Bacillus sp.): 0.05 dilution of stock solution | MIC (Staph. aureus [3]; [15]): 0.02 dilution of stock solution | FIC (Staph. aureus [3]; [16]): 1.48 | Type of reaction (FIC class) (Staph. aureus [3]; [16]): B (Antagonistic reaction (FIC > 1.0)) | MIC (Ps. aeruginosa [4]; [15]): 0.09 dilution of stock solution | FIC (Ps. aeruginosa [4]; [16]): 0.37 | Type of reaction (FIC class) (Ps. aeruginosa [4]; [16]): C (Synergistic reaction (FIC < 0.5)) | MIC (P. mirabilis; [15]): 0.19 dilution of stock solution | FIC (P. mirabilis; [16]): 0.37 | Type of reaction (FIC class) (P. mirabilis; [16]): C (Synergistic reaction (FIC < 0.5)) | MIC (E. coli): 0.12 dilution of stock solution | MIC (S. enteritidis; [17]): 0.005 dilution of stock solution | FIC (S. enteritidis; [16]): 0.38 | Type of reaction (FIC class) (S. enteritidis; [16]): C (Synergistic reaction (FIC < 0.5)) | MIC [5, 17]: 0.005 dilution of stock solution | FIC [5, 16]: 0.5 | Type of reaction (FIC class) [5, 16]: D (Synergistic reaction (FIC <: 0.5)) | MIC [6, 17]: 0.005 dilution of stock solution | FIC [6, 16]: 0.63 | Type of reaction (FIC class) [6, 16]: C (Additive reaction (FIC :> 0.5 to < 1.0)) | MIC [7, 17]: 0.005 dilution of stock solution | FIC [7, 16]: 0.75 | Type of reaction (FIC class) [7, 16]: C (Additive reaction (FIC :> 0.5 to < 1.0)) | MIC [8, 17]: 0.005 dilution of stock solution | FIC [8, 16]: 0.5 | Type of reaction (FIC class) [8, 16]: D (Synergistic reaction (FIC <: 0.5)) | FIC (B subtilis): 1.0 | Type of reaction (FIC class) (B subtilis): B (Additive reaction (FIC > 0.5 to < 1.0)) | FIC (E. coli Av): 0.50 | Type of reaction (FIC class) (E. coli Av): A (Synergistic reaction (FIC ˜ 0.5)) | FIC (E. coli V-1): 0.53 | Type of reaction (FIC class) (E. coli V-1): C (Additive reaction (FIC > 0.5 to < 1.0)) | Effect of EDTA-Tris on the antimicrobial effect of the disinfectant (Gram-negative bacteria): potentiated (synergistic or additive) | Effect of EDTA-Tris on the antimicrobial effect of the disinfectant (Gram-positive organisms): did not react uniformly

CN(C)[C@@H]1C(O)=C(C(N)=O)C(=O)[C@@]2(O)C(O)=C3C(=O)c4c(O)cccc4[C@@](C)(O)[C@H]3[C@H](O)[C@@H]12 [Oxytetracycline, oxytetracycline, reference compound]
MIC, antibiotic individually administered (Ps. aeruginosa [1]; Ps. aeruginosa, alone): 0.003 mg/mL | MIC, antibiotic individually administered (Staph. aureus [2]; Staph. aureus, alone): 0.0001 mg/mL | MIC, antibiotic individually administered (Ent. faecalis; Ent. faecalis, alone): 0.05 mg/mL

CN[C@H](CC(C)C)C(=O)N[C@H]1C(=O)N[C@@H](CC(N)=O)C(=O)N[C@H]2C(=O)N[C@H]3C(=O)N[C@H](C(=O)N[C@H](C(=O)O)c4cc(O)cc(O)c4-c4cc3ccc4O)[C@H](O)c3ccc(c(Cl)c3)Oc3cc2cc(c3O[C@@H]2O[C@H](CO)[C@@H](O)[C@H](O)[C@H]2O[C@H]2C[C@](C)(N)[C@H](O)[C@H](C)O2)Oc2ccc(cc2Cl)[C@H]1O [Va, vancomycin]
Antibiotic resistance profile (Staphylococcus aureus [9]): S | Antibiotic resistance profile (Pseudomonas aeruginosa [10]): R | Antibiotic resistance profile (Enterococcus faecalis [11]): R

gentamicin [Gm]
Antibiotic resistance profile (Staphylococcus aureus [9]): S | Antibiotic resistance profile (Pseudomonas aeruginosa [10]): I | Antibiotic resistance profile (Enterococcus faecalis [11]): R

neomycin [reference compound]
Antibiotic resistance profile (Staphylococcus aureus [9]): R | Antibiotic resistance profile (Pseudomonas aeruginosa [10]): R | Antibiotic resistance profile (Enterococcus faecalis [11]): R | MIC, antibiotic individually administered (Ps. aeruginosa [1]; Ps. aeruginosa, alone): 1.0 mg/mL | MIC, antibiotic individually administered (Staph. aureus [2]; Staph. aureus, alone): 3.13 mg/mL | MIC, antibiotic individually administered (Ent. faecalis; Ent. faecalis, alone): 3.13 mg/mL | Decrease of MBC value when combined compared to individually administered (Staphylococcus aureus [12]; Staph. aureus, EDTA and neomycin combined): about 50% and 50% | MBC, neomycin co-administered (Staphylococcus aureus [12]; Staphylococcus aureus, co-administered with EDTA in 50 mM Tris): 1.56 mg/mL | MBC, neomycin individually administered (Staphylococcus aureus [12]; Staphylococcus aureus, in 50 mM Tris): 3.13 mg/mL | Decrease of MBC value when combined compared to individually administered (Pseudomonas aeruginosa [13]; Ps. aeruginosa, EDTA and neomycin combined): 99.2% | MBC, neomycin co-administered (Pseudomonas aeruginosa [13]; Pseudomonas aeruginosa, co-administered with EDTA in 50 mM Tris): 0.04 mg/mL | MBC, neomycin individually administered (Pseudomonas aeruginosa [13]; Pseudomonas aeruginosa, in 50 mM Tris): 5.0 mg/mL | Decrease of MBC value when combined compared to individually administered (Enterococcus faecalis [14]; Ent. faecalis, EDTA and neomycin combined): 75% | MBC, neomycin co-administered (Enterococcus faecalis [14]; Enterococcus faecalis, co-administered with EDTA in 50 mM Tris): 6.25 mg/mL | MBC, neomycin individually administered (Enterococcus faecalis [14]; Enterococcus faecalis, in 50 mM Tris): 25.0 mg/mL | MIC, neomycin alone (Aeromonas caviae): 0.0125 mg/mL | MIC, neomycin alone (Aeromonas hydrophila): 0.2 mg/mL | MIC, neomycin alone (Aeromonas sobria): 0.0125 mg/mL
